# Results taken from US20220127568A1, “COMPOSITIONS AND METHODS FOR GENERATING HAIR CELLS BY INHIBITING EPIGENETIC TARGETS” (Frequency Therapeutics, Inc., priority 2019, published 2022).
# “Also recorded” adds a separate entry of the source. Where two headings read alike, the source gives them in different places.
# Experiments:
# [1] = tested on: Lgr5 GFP+ cochlear progenitor cells; test: Lgr5+ Assay (Stem Cell Proliferation Assay); format: cell-based
# [2] = cited from earlier work; for Human Plasma Conc.: LSD1 inhibitors
# [3] = tested on: Lgr5+ cochlear progenitor cells; test: Quantification of Lgr5+ cochlear progenitor cell proliferation, expansion and enrichment (3D Matrigel culture, Celigo imaging, GFP(+) cell area); format: cell-based, mouse; conditions: for proliferation or enrichment of cochlear progenitor cells: inhibitor alone
# [4] = EZH2 inhibitors, active concentration range, <= is the upper end of a wrapped range
# [5] = EZH2 inhibitors, <= is the upper end of a wrapped range
# [6] = in combination with Wnt agonist CHIR99021
# [7] = active concentration of LSD1 inhibitor, >= is the lower end of a range wrapped over two lines
smiles,measurement,setting,value
O=C(N/N=C/c1c(O)ccc2ccccc12)c1ccncc1 [AS 8351],Lgr5 GFP(+) cell count,"[1]; FIG. 37A: 2 μM AS 8351 + 3 μM CHIR99021 + 1 mM VPA in EFI vs EFI-C, EFI-CV",further enhances Lgr5 GFP+ progenitor cell proliferation
same,Lgr5 GFP(+) cell proliferation percentage,"[1]; FIG. 37B: 2 μM AS 8351 + 3 μM CHIR99021 + 1 mM VPA in EFI vs EFI-C, EFI-CV",further enhances enrichment
same,Lgr5+ Assay,"[1]; KDM inhibitors, active concentration range",1 to 3 µM
same,Human In Vivo Conc,[2]; KDM inhibitors,1000 to 3000 µM
CCS(=O)(=O)N1CCC(C(C)n2c(C)c(C(=O)NCc3c(OC)cc(C)[nH]c3=O)c3ccccc32)CC1 (stereo not shown) [CPI-169],Lgr5+ Assay,[1]; [4],0.1 to 10 µM
same,Lgr5 GFP(+) cell count,"[1]; FIG. 11A: 1.11 μM CPI-169 + 4 μM CHIR99021 in EFI vs EFI-C, EFI-CV",enhances Lgr5 GFP+ progenitor cell proliferation
same,Lgr5 GFP(+) cell area,[1]; FIG. 33A: 1.11 μM CPI-169 + 4 μM CHIR99021 in EFI vs CHIR alone,enhances Lgr5 GFP+ progenitor cell proliferation
same,Lgr5 GFP(+) cell area percentage,[1]; FIG. 33B: 1.11 μM CPI-169 + 4 μM CHIR99021 in EFI vs CHIR alone,enhances enrichment
same,Human In Vivo Conc,[2]; [5],1 to 10 µM
COc1cc(C)[nH]c(=O)c1CNC(=O)c1c(C)n([C@H](C)C2CCOCC2)c2ccccc12 [CPI-360],Lgr5+ Assay,[1]; [4],0.1 to 10 µM
same,Lgr5 GFP(+) cell area,[1]; FIG. 12A: 0-30 μM CPI-360 alone in EFI,does not proliferate
same,Lgr5 GFP(+) cell area percentage,[1]; FIG. 12B: 0-30 μM CPI-360 alone in EFI,does not enrich
same,Lgr5 GFP(+) cell area,[1]; FIG. 13A-16A: 3.33 μM CPI-360 + 4 μM CHIR99021 in EFI vs CHIR alone,enhances Lgr5 GFP+ progenitor cell proliferation; also recorded: enhances Lgr5 GIP+ progenitor cell proliferation
same,Lgr5 GFP(+) cell area percentage,[1]; FIG. 13B-16B: 3.33 μM CPI-360 + 4 μM CHIR99021 in EFI vs CHIR alone,enhances enrichment
same,Human In Vivo Conc,[2]; [5],1 to 10 µM
COc1cc(C)[nH]c(=O)c1CNC(=O)c1c(C)n([C@H](C)C2CCN(CC(F)(F)F)CC2)c2ccccc12 [CPI-1205],Lgr5+ Assay,[1]; [4],≤ 30 µM
same,Lgr5+ Assay,"[1]; EZH2 inhibitors, lower end of active range wrapped over two lines",≥ 100 nM-
same,Lgr5 GFP(+) cell area,[1]; FIG. 17A: 0-30 μM CPI-1205 alone in EFI,does not proliferate
same,enrichment of Lgr5 GFP+ cells (y-axis: Lgr5 GFP(+) cell area),[1]; FIG. 17B: 0-30 μM CPI-1205 alone in EFI,does not enrich
same,Lgr5 GFP(+) cell area,"[1]; FIG. 18A, 19A: 3.33 μM CPI-1205 + 4 μM CHIR99021 in EFI vs CHIR alone",enhances Lgr5 GFP+ progenitor cell proliferation
same,Lgr5 GFP(+) cell area percentage,"[1]; FIG. 18B, 19B: 3.33 μM CPI-1205 + 4 μM CHIR99021 in EFI vs CHIR alone",enhances enrichment
same,Human In Vivo Conc,[2]; [5],25 to 250 µM
same,Lgr5+ progenitor cell proliferation and enrichment,[3]; [6],enhanced Lgr5+ progenitor cell proliferation and enrichment
same,proliferation or enrichment of cochlear progenitor cells,[3],does not promote the proliferation or enrichment
CC(C)N(CCCNC(=O)Nc1ccc(C(C)(C)C)cc1)C[C@H]1O[C@@H](n2ccc3c(N)ncnc32)[C@H](O)[C@@H]1O [EPZ004777],Lgr5+ Assay,"[1]; DOT1L inhibitors, active concentration range",0.6-45 μm μM
same,Lgr5 GFP(+) cell count,"[1]; FIG. 34A: 15 μM EPZ004777 + 3 μM CHIR99021 in EFI vs EFI-C, EFI-CV",enhances Lgr5 GFP+ progenitor cell proliferation
same,Lgr5 GFP(+) cell proliferation percentage,"[1]; FIG. 34B: 15 μM EPZ004777 + 3 μM CHIR99021 in EFI vs EFI-C, EFI-CV",enhances enrichment
same,Human In Vivo Conc,[2]; DOT1L inhibitors,0.1-45 uM μM
same,Lgr5+ progenitor cell proliferation and enrichment,"[3]; combined with CHIR99021, compared to CHIR99021 alone",proliferation and enrichment are enhanced
CCN(c1cc(C#CCN2CCOCC2)cc(C(=O)NCc2c(C)cc(C)[nH]c2=O)c1C)[C@H]1CC[C@H](N(C)CCOC)CC1 [EPZ011989],Lgr5 GFP(+) cell area,[1]; FIG. 25A: 0-10 μM EPZ011989 alone in EFI,does not proliferate
same,enrichment of Lgr5 GFP+ cells (y-axis: Lgr5 GFP(+) cell area),[1]; FIG. 25B: 0-10 μM EPZ011989 alone in EFI,does not enrich
same,Lgr5 GFP(+) cell area,[1]; FIG. 26A-29A: 123 nM EPZ011989 + 4 uM CHIR99021 in EFI vs CHIR alone,enhances Lgr5 GFP+ progenitor cell proliferation
same,Lgr5 GFP(+) cell area percentage,[1]; FIG. 26B-29B: 123 nM EPZ011989 + 4 uM CHIR99021 in EFI vs CHIR alone,enhances enrichment
same,proliferation or enrichment of cochlear progenitor cells,[3],does not promote proliferation or enrichment
O=C(O)c1ccc(CN2CCC(CN[C@@H]3C[C@H]3c3ccccc3)CC2)cc1 [GSK2879552],Lgr5 GFP(+) cell count,"[1]; FIG. 4A: 370 nM GSK2879552 + 4 μM CHIR99021 + 1 mM VPA in EFI vs EFI-C, EFI-CV",enhances Lgr5 GFP+ progenitor cell proliferation
same,Lgr5 GFP(+) cell proliferation percentage,"[1]; FIG. 4B: 370 nM GSK2879552 + 4 μM CHIR99021 + 1 mM VPA in EFI vs EFI-C, EFI-CV",enhances enrichment
same,Lgr5+ progenitor cell proliferation and enrichment,[3]; inhibitor 370 nM with CHIR99021 (4 μM) and VPA (1 mM),proliferation and enrichment are enhanced
c1ccc([C@@H]2C[C@H]2NC2CCNCC2)cc1 [GSK-LSD1],Lgr5 GFP(+) cell count,"[1]; FIG. 5A: 4.5 nM GSK-LSD1 + 4 μM CHIR99021 + 1 mM VPA in EFI vs EFI-C, EFI-CV",enhances Lgr5 GFP+ progenitor cell proliferation
same,Lgr5 GFP(+) cell proliferation percentage,"[1]; FIG. 5B: 4.5 nM GSK-LSD1 + 4 μM CHIR99021 + 1 mM VPA in EFI vs EFI-C, EFI-CV",enhances enrichment
same,Lgr5+ Assay,[1]; [7],≥ 4 nM-
same,Human Plasma Conc.,[2],1 to 100 nM
CC(=O)O.Cc1cc(C)c(CN2CCc3c(Cl)cc(-c4c(C)noc4C)c(Cl)c3C2=O)c(=O)[nH]1 [PF 06726304 acetate],Lgr5 GFP(+) cell area,[1]; FIG. 20A: 0-90 μM PF 06726304 acetate alone in EFI,does not proliferate
same,enrichment of Lgr5 GFP+ cells (y-axis: Lgr5 GFP(+) cell area),[1]; FIG. 20B: 0-90 μM PF 06726304 acetate alone in EFI,does not enrich
same,Lgr5 GFP(+) cell area,"[1]; FIG. 21A, 22A: 370 nM PF 06726304 acetate + 4 μM CHIR99021 in EFI vs CHIR alone",enhances Lgr5 GFP+ progenitor cell proliferation
same,Lgr5 GFP(+) cell area percentage,"[1]; FIG. 21B, 22B: 370 nM PF 06726304 acetate + 4 μM CHIR99021 in EFI vs CHIR alone",enhances enrichment
same,Lgr5+ progenitor cell enrichment,"[3]; in combination with CHIR99021 (FIG. 23, FIG. 24)",enriched
same,proliferation or enrichment of cochlear progenitor cells,[3],does not promote the proliferation or enrichment
CN1CCN(C(=O)CN[C@H]2C[C@@H]2c2ccc(OCc3ccccc3)cc2)CC1.Cl.Cl [RN-1 HCl],Lgr5 GFP(+) cell count,"[1]; FIG. 38A: 0-30 μM RN-1 HCl alone in EFI vs EFI-C, EFI-CV, EFI-CVT (7 μM tranylcypromine)",does not proliferate
same,enrichment of Lgr5 GFP+ cells (y-axis: Lgr5 GFP(+) cell count),"[1]; FIG. 38B: 0-30 μM RN-1 HCl alone in EFI vs EFI-C, EFI-CV, EFI-CVT",does not enrich
same,Lgr5 GFP(+) cell count,"[1]; FIG. 39A: 41 nM RN-1 + 4 μM CHIR99021 + 1 mM VPA in EFI vs EFI-C, EFI-CV, EFI-CVT",further enhances Lgr5 GFP+ progenitor cell proliferation
same,enrichment of Lgr5 GFP+ cells (y-axis: Lgr5 GFP(+) cell count),"[1]; FIG. 39B: 41 nM RN-1 + 4 μM CHIR99021 + 1 mM VPA in EFI vs EFI-C, EFI-CV, EFI-CVT",enhances enrichment
same,proliferation or enrichment of cochlear progenitor cells,[3],does not promote the proliferation or enrichment
CN1CCN(C(=O)CN[C@H]2C[C@@H]2c2ccc(OCc3ccccc3)cc2)CC1.Cl.Cl [RN-1],Lgr5+ Assay,[1]; [7],0.041 µM
same,Human Plasma Conc.,[2],1 to 100 nM
CC(C)N(CCCNC(=O)Nc1ccc(C(C)(C)C)cc1)C[C@H]1O[C@@H](n2cc(Br)c3c(N)ncnc32)[C@H](O)[C@@H]1O [SGC0946],Lgr5 GFP(+) cell count,"[1]; FIG. 35A: […] SGC0946 + 3 μM CHIR99021 in EFI vs EFI-C, EFI-CV",enhances Lgr5 GFP+ progenitor cell proliferation
same,Lgr5 GFP(+) cell proliferation percentage,"[1]; FIG. 35B: […] SGC0946 + 3 μM CHIR99021 in EFI vs EFI-C, EFI-CV",enhances enrichment
same,Human In Vivo Conc,[2]; DOT1L inhibitors,0.1 to 5 µM
same,Lgr5+ progenitor cell proliferation and enrichment,[3]; [6],proliferation and enrichment are enhanced
NC1CC1c1ccccc1 (stereo not shown) [TCP],Lgr5+ Assay,"[1]; active concentration of LSD1 inhibitor, <= is the upper end of a range wrapped over two lines",0.1 to 20 µM
same,Human Plasma Conc. Cmax,"[2]; human plasma Cmax, >= and <= are the ends of a wrapped range",30 to 200 ng/mL
same,Cmax,"[2]; human plasma Cmax, read-out: Human Plasma Conc. Cmax (molar, in brackets)",225 to 1500 nM
CCN(c1cc(-c2ccc(CN3CCOCC3)cc2)cc(C(=O)NCc2c(C)cc(C)[nH]c2=O)c1C)C1CCOCC1 [tazemetostat],Lgr5+ Assay,[1]; [4],0.1 to 10 µM
same,Human In Vivo Conc,"[2]; EZH2 inhibitors, >= is the lower end of a wrapped range",(200-1600 nM)
same,Human In Vivo Conc,[2]; EZH2 inhibitors,100 to 800 ng/mL
N[C@@H]1C[C@H]1c1ccccc1 [tranylcypromine],Lgr5 GFP(+) cell count,"[1]; FIG. 1A: 0-10 μM tranylcypromine alone in growth factors (EFI, 50 ng/mL each) vs EFI + 4 μM CHIR99021 (EFI-C) or + 1 mM VPA (EFI-CV)",does not proliferate
same,Lgr5 GFP(+) cell proliferation percentage,"[1]; FIG. 1B: 0-10 μM tranylcypromine alone in EFI vs EFI-C, EFI-CV",does not enrich
same,Lgr5 GFP(+) cell count,"[1]; FIG. 2A: 2 μM tranylcypromine + 4 μM CHIR99021 in EFI vs EFI-C, EFI-CV",enhances Lgr5 GFP+ progenitor cell proliferation
same,Lgr5 GFP(+) cell proliferation percentage,"[1]; FIG. 2B: 2 μM tranylcypromine + 4 μM CHIR99021 in EFI vs EFI-C, EFI-CV",enhances enrichment
same,Lgr5 GFP(+) cell count,[1]; FIG. 3A: 4 μM tranylcypromine + 4 μM CHIR99021 + 1 mM VPA in EFI vs EFI-CV,enhances Lgr5 GFP+ progenitor cell proliferation
same,Lgr5 GFP(+) cell proliferation percentage,[1]; FIG. 3B: 4 μM tranylcypromine + 4 μM CHIR99021 + 1 mM VPA in EFI vs EFI-CV,enhances enrichment
same,Lgr5+ progenitor cell proliferation and enrichment,[3]; combined with CHIR99021 (4 μM) and VPA (1 mM),proliferate and are enriched
same,Lgr5+ progenitor cell proliferation and enrichment,[3]; combined with Wnt agonist CHIR99021 (4 μM),proliferate and are enriched
same,proliferation or enrichment of cochlear progenitor cells,[3],does not promote the proliferation or enrichment
